Active and inactive are the calls of the source. No cut-off for these calls is given here. Numbered stars: 1 amine (or outer) side, 2 acyl side, 3 side chain; on linkers, the order of the positions; unused ones are H or OH. Square brackets hold non-standard residues; d marks the D form. Peptide text beside a SMILES is read from it. * marks the point of attachment. X17 = CC(=O)N(CCCC[C@H](N[*:1])C(=O)[*:2])C1CC2CCC1C2; X15 = O=C([C@H](CCCCNC1CN2CCC1CC2)N[*:1])[*:2]; Acetyl(2-naphthyl) = O=C(Cc1ccc2ccccc2c1)*; Lys(Et2) = CCN(CC)CCCC[C@H](N)C(=O)O; Benzoyl(4-OMe) = COc1ccc(C(=O)*)cc1; Benzoyl(4-Me) = Cc1ccc(C(=O)*)cc1; X2 = Cc1cccc(C(=O)*)c1; X1 = Cc1ccccc1C(=O)*; Bz = O=C(c1ccccc1)*

In assay [1] the target is T1, Chromobox protein homolog 7 (Homo sapiens) (UniProt O95931).
T1 sequence (whole entry): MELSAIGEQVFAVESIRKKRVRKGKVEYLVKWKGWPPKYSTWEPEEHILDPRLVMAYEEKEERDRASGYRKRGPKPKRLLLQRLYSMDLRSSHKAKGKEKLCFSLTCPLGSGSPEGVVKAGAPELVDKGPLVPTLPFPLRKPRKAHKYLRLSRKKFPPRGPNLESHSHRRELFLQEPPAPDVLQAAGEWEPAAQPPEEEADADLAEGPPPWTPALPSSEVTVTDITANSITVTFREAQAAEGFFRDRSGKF
The assay is described as follows: Binding affinity to recombinant human C-terminal His-tagged CBX7 chromodomain (8 to 62 residues) expressed in Escherichia coli Rosetta BL21(DE3)pLysS by SPR method.

Assay [2] deals with Chromobox protein homolog 5 (Homo sapiens, UniProt P45973). Nature of the assay: Antagonist activity at recombinant human N-terminal His-tagged CBX5 chromodomain (18 to 75 residues) expressed in Escherichia coli Rosetta BL21(DE3)pLysS using ARTKQTARK(Me3)STGGKAPRKQL-K(Biotin)-NH2 measured after 30 mins by AlphaScreen assay.
The target of assay [3] is T2, Chromobox protein homolog 7 (Homo sapiens, UniProt O95931).
T2 sequence (O95931 whole entry): T1 sequence (whole entry)
The assay is described as follows: Antagonist activity at recombinant human C-terminal His-tagged CBX7 chromodomain (8 to 62 residues) expressed in Escherichia coli Rosetta BL21(DE3)pLysS using biotin-labeled UNC4195 measured after 30 mins by AlphaScreen assay. Background: In Alpha technology, singlet oxygen from a donor bead excites a nearby acceptor bead.

Assay [4] addresses T3, Chromobox protein homolog 8 (Homo sapiens, UniProt Q9HC52).
T3 sequence (Q9HC52 whole entry): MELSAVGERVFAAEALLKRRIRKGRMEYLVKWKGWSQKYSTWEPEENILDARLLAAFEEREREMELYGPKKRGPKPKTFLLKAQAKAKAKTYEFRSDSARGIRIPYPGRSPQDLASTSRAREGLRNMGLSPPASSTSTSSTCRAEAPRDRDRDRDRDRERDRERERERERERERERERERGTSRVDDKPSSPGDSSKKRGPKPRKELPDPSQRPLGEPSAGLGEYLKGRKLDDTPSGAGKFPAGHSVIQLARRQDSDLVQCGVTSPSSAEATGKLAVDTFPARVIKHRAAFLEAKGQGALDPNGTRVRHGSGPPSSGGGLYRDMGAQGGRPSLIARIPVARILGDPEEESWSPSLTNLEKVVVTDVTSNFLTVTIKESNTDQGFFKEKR
Nature of the assay: Antagonist activity at recombinant human N-terminal His-tagged CBX8 chromodomain (8 to 61 residues) expressed in Escherichia coli Rosetta BL21(DE3)pLysS using biotin-labeled UNC4195 measured after 30 mins by AlphaScreen assay.

Assay [5] deals with T4, E3 SUMO-protein ligase CBX4 (Homo sapiens, UniProt O00257).
T4 sequence (O00257 whole entry): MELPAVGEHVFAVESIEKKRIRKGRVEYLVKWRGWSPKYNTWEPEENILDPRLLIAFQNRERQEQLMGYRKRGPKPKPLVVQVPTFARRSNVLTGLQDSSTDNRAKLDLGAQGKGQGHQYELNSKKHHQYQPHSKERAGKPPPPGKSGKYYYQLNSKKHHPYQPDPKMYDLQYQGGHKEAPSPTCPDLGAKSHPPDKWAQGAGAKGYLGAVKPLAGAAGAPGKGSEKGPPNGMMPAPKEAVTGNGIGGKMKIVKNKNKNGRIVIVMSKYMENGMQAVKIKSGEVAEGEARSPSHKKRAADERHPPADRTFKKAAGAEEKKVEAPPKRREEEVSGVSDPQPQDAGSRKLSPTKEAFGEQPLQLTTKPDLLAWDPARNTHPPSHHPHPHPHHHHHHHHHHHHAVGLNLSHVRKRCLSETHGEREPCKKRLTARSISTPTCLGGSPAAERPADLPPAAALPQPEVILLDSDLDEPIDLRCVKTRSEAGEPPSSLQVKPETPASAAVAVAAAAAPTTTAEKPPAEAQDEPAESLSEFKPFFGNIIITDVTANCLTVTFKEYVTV
Nature of the assay: Antagonist activity at recombinant human N-terminal His-tagged CBX4 chromodomain (8 to 65 residues) expressed in Escherichia coli Rosetta BL21(DE3)pLysS using biotin-labeled UNC4195 measured after 30 mins by AlphaScreen assay.

Assay [6] concerns the target T5, Chromodomain Y-like protein 2 (Homo sapiens, UniProt Q8N8U2).
T5 sequence (Q8N8U2 whole entry): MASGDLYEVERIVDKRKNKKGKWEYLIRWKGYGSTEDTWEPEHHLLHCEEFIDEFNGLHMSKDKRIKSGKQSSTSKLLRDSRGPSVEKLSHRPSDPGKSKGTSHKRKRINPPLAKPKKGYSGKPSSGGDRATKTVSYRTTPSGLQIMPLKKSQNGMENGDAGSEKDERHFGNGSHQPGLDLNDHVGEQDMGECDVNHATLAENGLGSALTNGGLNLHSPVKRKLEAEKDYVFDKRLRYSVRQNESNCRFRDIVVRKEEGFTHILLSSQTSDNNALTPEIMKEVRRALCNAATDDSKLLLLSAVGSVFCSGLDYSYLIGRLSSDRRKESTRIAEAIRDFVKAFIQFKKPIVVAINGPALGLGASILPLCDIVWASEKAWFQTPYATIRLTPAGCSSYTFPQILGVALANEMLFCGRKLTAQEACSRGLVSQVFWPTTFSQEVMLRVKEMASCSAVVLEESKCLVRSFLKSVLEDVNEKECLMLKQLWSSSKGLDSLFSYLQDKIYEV
Nature of the assay: Antagonist activity at recombinant human C-terminal His-tagged CDYL2 chromodomain (1 to 75 residues) expressed in Escherichia coli Rosetta BL21(DE3)pLysS using biotin-labeled UNC4195 measured after 30 mins by AlphaScreen assay.

Chain of Chromobox protein homolog 5 (P45973 whole entry, the tested form may be a part): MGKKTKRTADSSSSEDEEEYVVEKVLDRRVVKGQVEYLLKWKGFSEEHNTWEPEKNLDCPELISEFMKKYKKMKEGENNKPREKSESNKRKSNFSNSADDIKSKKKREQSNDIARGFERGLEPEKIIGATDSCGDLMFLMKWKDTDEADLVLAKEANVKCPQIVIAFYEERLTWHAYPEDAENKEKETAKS

Regarding `CCN(CC)CCCC[C@H](NC(=O)[C@H](CC(C)C)NC(=O)[C@H](C)NC(=O)[C@H](Cc1ccccc1)NC(=O)c1cccc(C)c1)C(=O)N[C@@H](CO)C(=O)OC` (X2-FAL[Lys(Et2)]S-OMe), in assay [1], the result was Active.
As to `CCN(CC)CCCC[C@H](NC(=O)[C@H](CC(C)C)NC(=O)[C@H](C)NC(=O)[C@H](Cc1ccccc1)NC(=O)c1ccc(C)cc1)C(=O)N[C@@H](CO)C(=O)OC` ({Benzoyl(4-Me)}-FAL[Lys(Et2)]S-OMe), the outcome in assay [1] was Active.
With `COC(=O)[C@H](CO)NC(=O)[C@H](CCCCNC1CN2CCC1CC2)NC(=O)[C@H](CC(C)C)NC(=O)[C@H](C)NC(=O)[C@H](Cc1ccccc1)NC(=O)CNC(=O)c1ccccc1` (stereo partly drawn) (Bz-GFAL[X15]S-OMe), the IC50 (in general, the concentration at which inhibition is half-maximal) is > 60 µM in assay [2]; > 60 µM in assay [3]; > 60 µM in assay [4]; > 60 µM in assay [5]; 24 µM in assay [6].
`CCN(CC)CCCC[C@H](NC(=O)[C@H](CC(C)C)NC(=O)[C@H](C)NC(=O)[C@H](Cc1ccccc1)NC(=O)c1ccc(OC)cc1)C(=O)N[C@@H](CO)C(=O)OC` ({Benzoyl(4-OMe)}-FAL[Lys(Et2)]S-OMe): the IC50 in assay [2] was found to be 12 µM; in assay [3] it was 0.25 µM; in assay [4], 3.3 µM; in assay [5], 0.75 µM; in assay [6] it was 0.26 µM.
For `CCN(CC)CCCC[C@H](NC(=O)[C@H](CC(C)C)NC(=O)[C@H](C)NC(=O)[C@H](Cc1ccccc1)NC(=O)c1ccccc1C)C(=O)N[C@@H](CO)C(=O)OC` (X1-FAL[Lys(Et2)]S-OMe), in assay [1], the outcome was Active.
Consider `COC(=O)[C@H](CO)NC(=O)[C@H](CCCCN(C(C)=O)C1CC2CCC1C2)NC(=O)[C@H](CC(C)C)NC(=O)[C@H](C)NC(=O)[C@H](Cc1ccccc1)NC(=O)CNC(=O)c1ccccc1` (stereo partly drawn) (Bz-GFAL[X17]S-OMe), for which the IC50 in assay [2] was > 60 µM; in assay [3], > 60 µM; in assay [4], > 60 µM; in assay [5], > 60 µM; in assay [6] it was 38 µM.
For `CCN(CC)CCCC[C@H](NC(=O)[C@H](CC(C)C)NC(=O)[C@H](C)NC(=O)[C@H](Cc1ccccc1)NC(=O)Cc1ccc2ccccc2c1)C(=O)N[C@@H](CO)C(=O)OC` ({Acetyl(2-naphthyl)}-FAL[Lys(Et2)]S-OMe), the half-inhibitory concentration (IC50) is > 60 µM in assay [2]; 1.1 µM in assay [3]; 24 µM in assay [4]; 5.2 µM in assay [5]; 0.084 µM in assay [6].

The values are drawn from ChEMBL document CHEMBL3856243, “Structure-Activity Relationships and Kinetic Studies of Peptidic Antagonists of CBX Chromodomains” (J Med Chem, 2016).
